Measurements taken from patent publication US10596172B2 (Celgene CAR LLC, priority 2008, dated 2020).
Like-named read-outs stand apart in the source and are kept apart here.

Tests used:
TEC kinase = TEC kinase (Homo sapiens (Human), UniProt P42680); experiment: Mass spectrometry for TEC kinase (tryptic digest); format: binding; settings: 3 hrs at 10x excess
Experimental: (§1) TEC kinase (45 pmols; Invitrogen) was incubated with (I-2) (450 pmols) for 3 hrs at 10× excess prior to tryptic digestion. Iodoacetamide was used as the alkylating agent after compound incubation. […] For tryptic digests a 5 ul aliquot (7.5 pmols) was diluted with 15 ul of 0.1% TFA prior to micro C18 Zip Tipping directly onto the MALDI target using alpha cyano-4-hydroxy cinnamic acid as the matrix (5 mg/ml in 0.1% TFA:Acetonitrile 50:50).
As depicted in FIG. 6, the expected peptide ([…]) to be modified was immediately evident after reaction with I-2 (MI mass of 359.17 Da) at MH+ of 1294.72. The peptide was also quite evident in the control sample as modified by Iodacetamide at MH+ of 992.56. […] There was no evidence of other modified peptides.
For tryptic digests the instrument was set in Reflectron mode with a pulsed extraction setting of 2200. Calibration was done using the Laser Biolabs Pep Mix standard ([…], 1296.69, 1672.92, 2093.09, 2465.20). For CID/PSD analysis the peptide was selected using cursors to set ion gate timing and fragmentation occurred at a laser power about 20% higher and He was used as the collision gas for CID. Calibration for fragments was done using the P14R fragmentation calibration for the Curved field Reflectron.
as §1, with “(I-4)” for “(I-2)”
As depicted in FIG. 7, the expected peptide ([…]) to be modified was immediately evident at MH+ of 1355.72. This is the mass to be expected when compound I-4, with an adduct mass of 420.21, is added to the peptide mass of 935.51. The peptide was also quite evident in the control sample as modified by Iodacetamide at MH^+ of 992.56. […] There was no evidence of other modified peptides. […]

[1] = test system: B cell lymphoma cell lines; experiment: B cell lymphoma proliferation assay; format: cell-based
BTK [2] = molecular target: T1, BTK (Homo sapiens (Human), UniProt Q06187); experiment: BTK occupancy in Ramos cells with I-7 and probe I-215 using streptavidin beads; format: cell-based; settings: 1 hour, higher concentrations of I-7 (above 10 nM)
T1 sequence (Q06187 whole entry): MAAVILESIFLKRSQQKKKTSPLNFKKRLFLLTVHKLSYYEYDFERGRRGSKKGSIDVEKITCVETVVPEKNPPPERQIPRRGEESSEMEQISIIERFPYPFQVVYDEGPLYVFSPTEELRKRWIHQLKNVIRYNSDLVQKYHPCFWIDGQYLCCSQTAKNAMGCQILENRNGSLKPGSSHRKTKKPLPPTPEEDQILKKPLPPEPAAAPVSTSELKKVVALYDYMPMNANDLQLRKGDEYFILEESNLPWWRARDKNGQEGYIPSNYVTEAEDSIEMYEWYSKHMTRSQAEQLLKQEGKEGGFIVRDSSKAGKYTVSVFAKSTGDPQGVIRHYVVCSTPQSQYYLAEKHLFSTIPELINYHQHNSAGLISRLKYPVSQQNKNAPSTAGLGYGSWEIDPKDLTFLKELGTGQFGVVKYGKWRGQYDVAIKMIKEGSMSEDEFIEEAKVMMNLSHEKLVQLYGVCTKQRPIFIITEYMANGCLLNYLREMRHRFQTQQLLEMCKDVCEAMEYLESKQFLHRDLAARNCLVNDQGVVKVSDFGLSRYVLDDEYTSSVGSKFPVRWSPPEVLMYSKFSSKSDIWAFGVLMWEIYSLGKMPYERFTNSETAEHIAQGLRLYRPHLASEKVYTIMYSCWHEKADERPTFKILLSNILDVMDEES
Experimental: Ramos cells were incubated with 0.1, 0.05, 0.01, or 0.001 μM I-7 in serum free media for 1 hour at 37° C. The cells were pelleted by centrifugation and lysed in Cell Extraction buffer (Invitrogen) for 10 minutes on ice, centrifuged (10 minutes at 14,000 rpm) and the supernatant was collected. Cell lysates were incubated with 1 μM I-215 for 1 hour at room temperature, then incubated with streptavidin-coupled agarose beads (ThermoFisher) overnight at 4° C. The beads were washed three times with lysis buffer and the bound proteins were boiled off the beads at 95° C. for 5 minutes in 4×LDS Sample Buffer. The amount of BTK associated with the probe I-215 was assessed by BTK western blot. All values were normalized to the DMSO-treated sample which is set to 100%.

BTK [3] = molecular target: T1, BTK; experiment: Mass spectrometry for BTK (covalent modification of intact protein); format: binding; settings: 1 hr, 10x fold excess of compound
Experimental: Intact BTK was incubated for 1 hr at a 10× fold excess of I-7 to protein. Aliquots (2 μl) of the samples were diluted with 10 μl of 0.1% TFA prior to micro C4 ZipTipping directly onto the MALDI target using Sinapinic acid as the desorption matrix (10 mg/ml in 0.1% TFA:Acetonitrile 20:80).

BTK [4] = molecular target: T1, BTK; experiment: Washout experiment with I-7 and probe compound I-215 in Ramos cells; format: cell-based; settings: 0.1 μM, 1 hour
Experimental: Ramos cells were incubated with 0.1 μM I-7 or a reversible BTK inhibitor control compound in serum free media for 1 hour at 37° C. The cells were then washed in compound-free media and lysed 0, 4, 6, or 8 hours after compound removal. Cell lysates were incubated with 1 μM I-215 for 1 hour at room temperature, then overnight at 4° C. with streptavidin-coupled agarose beads. Protein was boiled off the beads and BTK association was assessed by western blot. […] In contrast, with the reversible inhibitor control, 45% of BTK protein is unbound and available to the probe at 0 hours and by 4 hours 100% of BTK protein is unbound and available to bind the probe. All samples were normalized to the DMSO-treated cells harvested at 0 hours.

[5] = DHL4 B cell lymphoma cell line, read-out: EC50 (μM) DHL4
[6] = Homo sapiens, DOHH-2, DOHH2 B cell lymphoma cell line, read-out: EC50 (μM) DOHH2
[7] = Homo sapiens, WSUDLCL2, WSU-DLCL2 B cell lymphoma cell line, read-out: EC50 (μM) WSU-DLCL2

Chain of TEC kinase (P42680 whole entry): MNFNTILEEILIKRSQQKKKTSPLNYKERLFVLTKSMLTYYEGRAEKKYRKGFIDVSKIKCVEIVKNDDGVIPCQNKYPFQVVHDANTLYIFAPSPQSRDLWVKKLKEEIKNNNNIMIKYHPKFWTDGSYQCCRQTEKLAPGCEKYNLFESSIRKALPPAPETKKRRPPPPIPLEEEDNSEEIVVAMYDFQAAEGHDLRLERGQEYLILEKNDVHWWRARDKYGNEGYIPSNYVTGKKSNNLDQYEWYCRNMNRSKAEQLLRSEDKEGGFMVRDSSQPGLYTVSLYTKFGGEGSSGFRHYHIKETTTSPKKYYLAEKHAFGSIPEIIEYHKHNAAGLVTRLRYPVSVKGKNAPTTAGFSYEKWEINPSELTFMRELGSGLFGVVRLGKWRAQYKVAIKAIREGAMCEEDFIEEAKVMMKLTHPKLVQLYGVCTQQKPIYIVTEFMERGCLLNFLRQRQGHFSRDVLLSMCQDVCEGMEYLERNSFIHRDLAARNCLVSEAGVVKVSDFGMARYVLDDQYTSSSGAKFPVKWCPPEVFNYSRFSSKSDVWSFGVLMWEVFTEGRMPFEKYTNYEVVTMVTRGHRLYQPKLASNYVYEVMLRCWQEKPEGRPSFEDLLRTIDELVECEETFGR

Row | covalent modification of TEC kinase peptide GCLLNFLR (Cys449) by mass spectrometry (TEC kinase) | EC50 [1, 5] [µM] | EC50 [1, 6] [µM] | EC50 [1, 7] [µM] | BTK occupancy (BTK available to probe I-215) (BTK [2]) | covalent modification of BTK by mass spectrometry (BTK [3]) | time BTK protein remains occupied after compound removal (BTK [4]) | SMILES
1 | reaction was complete | 0.1 to 1 | 0.1 to 1 | 0.1 to 1 |  |  |  | Cc1cccc(Nc2nc(Nc3cccc(NC(=O)/C=C/CN(C)C)c3)ncc2F)c1 [Compound I-4, (E)-4-(dimethylamino)-N-(3-(5-fluoro-4-(m-tolylamino)pyrimidin-2-ylamino)phenyl)but-2-enamide]
2 | reaction was complete | 1 to 10 | 1 to 10 | 1 to 10 | fully occupied | complete modification | over 8 hours | C=CC(=O)Nc1cccc(Nc2nc(Nc3ccccc3)ncc2C)c1 [Compound I-7, N-(3-(5-methyl-2-(phenylamino)pyrimidin-4-ylamino)phenyl)acrylamide]
